Several values for one entry are separate records, joined by “and”; a condition that tells them apart may be missing. Identical values can stand only once.
Conditions: Liquid

CCCCCCCCCCCCCCCCCC(=O)OC [methyl octadecanoate]
Conditions | vapor or sublimation pressure
323.15 K | 1.964e-05 kPa
325.63 K | 2.609e-05 kPa
329.6 K | 4.071e-05 kPa
330.56 K | 4.58e-05 kPa
332.04 K | 5.362e-05 kPa
333.07 K | 6.007e-05 kPa
334.55 K | 6.999e-05 kPa
335.51 K | 7.764e-05 kPa
336.99 K | 9.04e-05 kPa
338.02 K | 0.0001008 kPa
339.5 K | 0.0001184 kPa
340.47 K | 0.0001287 kPa
340.98 K | 0.0001351 kPa
341.1 K | 0.0001377 kPa
341.96 K | 0.0001499 kPa
342.97 K | 0.0001648 kPa
343.46 K | 0.0001744 kPa
343.47 K | 0.0001739 kPa
343.6 K | 0.0001774 kPa
344.44 K | 0.0001914 kPa
345.44 K | 0.0002122 kPa
345.93 K | 0.0002228 kPa and 0.0002233 kPa
348.42 K | 0.0002848 kPa
348.57 K | 0.0002879 kPa
350.9 K | 0.0003613 kPa
355.89 K | 0.0005743 kPa
358.52 K | 0.0007236 kPa
360.89 K | 0.0008965 kPa
363.49 K | 0.001127 kPa
363.98 K | 0.00118 kPa
365.92 K | 0.001386 kPa
366.47 K | 0.00146 kPa
368.46 K | 0.001721 kPa
368.97 K | 0.001804 kPa
370.93 K | 0.002113 kPa
371.46 K | 0.002216 kPa
373.44 K | 0.002588 kPa
373.95 K | 0.00271 kPa
373.96 K | 0.002713 kPa
375.45 K | 0.003046 kPa
375.93 K | 0.003163 kPa
376.44 K | 0.003286 kPa
377.44 K | 0.003573 kPa
380.44 K | 0.004514 kPa and 0.0045 kPa
381.43 K | 0.004848 kPa
381.44 K | 0.004888 kPa and 0.0049 kPa
382.43 K | 0.005241 kPa
383.93 K | 0.005905 kPa
383.94 K | 0.0059 kPa
385.43 K | 0.006597 kPa and 0.006574 kPa
386.43 K | 0.007091 kPa and 0.007085 kPa
388.93 K | 0.00852 kPa
391.41 K | 0.01021 kPa
393.92 K | 0.0122 kPa
396.39 K | 0.01443 kPa
398.9 K | 0.01726 kPa
401.38 K | 0.0202 kPa
403.89 K | 0.02406 kPa
406.38 K | 0.0282 kPa
408.88 K | 0.03336 kPa

Transpiration method
Conditions | vapor or sublimation pressure [kPa]
369.05 K | 0.00176
371.15 K | 0.00202
375.1 K | 0.0027
377.05 K | 0.00323
380.05 K | 0.00389
383.15 K | 0.00494
387.15 K | 0.00636
390.35 K | 0.00731
393.15 K | 0.00901
397.5 K | 0.013
399.45 K | 0.0149
400.35 K | 0.0159
401.35 K | 0.0166
405.2 K | 0.0225
405.6 K | 0.0231
408.4 K | 0.0279
410.25 K | 0.0322
411.15 K | 0.0339
412.3 K | 0.036
415.2 K | 0.0433
416.35 K | 0.0424
419.25 K | 0.052
420.15 K | 0.0563
423.1 K | 0.0664
425.15 K | 0.0804

CCCCCCCCCC(=O)OC [methyl decanoate]
Conditions | vapor or sublimation pressure
273.35 K | 0.0004731 kPa
273.84 K | 0.0004984 kPa
274.32 K | 0.0005246 kPa
274.8 K | 0.0005538 kPa
275.29 K | 0.0005879 kPa
275.77 K | 0.0006152 kPa
276.26 K | 0.0006487 kPa
276.74 K | 0.0006849 kPa
277.23 K | 0.0007225 kPa
277.71 K | 0.0007597 kPa
278.2 K | 0.0008032 kPa
278.69 K | 0.0008442 kPa
279.18 K | 0.0008873 kPa
279.66 K | 0.0009341 kPa
280.15 K | 0.0009819 kPa
280.64 K | 0.001035 kPa
281.12 K | 0.001093 kPa
281.47 K | 0.001128 kPa
282.96 K | 0.001314 kPa
283.48 K | 0.001386 kPa
284.46 K | 0.001532 kPa
284.96 K | 0.001613 kPa
285.43 K | 0.001692 kPa
285.64 K | 0.00173 kPa
285.74 K | 0.001743 kPa
285.95 K | 0.001776 kPa
286.44 K | 0.001869 kPa
286.95 K | 0.001967 kPa
287.44 K | 0.002063 kPa
287.94 K | 0.002166 kPa and 0.002174 kPa
288.93 K | 0.002392 kPa
289.31 K | 0.002487 kPa
289.43 K | 0.002508 kPa
290.42 K | 0.002759 kPa
290.53 K | 0.002791 kPa
290.92 K | 0.002894 kPa
291.81 K | 0.003154 kPa
291.92 K | 0.003182 kPa
292.42 K | 0.003341 kPa
292.9 K | 0.003501 kPa
293.41 K | 0.00367 kPa
293.91 K | 0.003845 kPa
294.3 K | 0.00399 kPa
294.9 K | 0.004224 kPa
295.4 K | 0.004415 kPa
295.51 K | 0.004442 kPa
295.9 K | 0.004625 kPa
296.39 K | 0.004836 kPa
296.77 K | 0.004989 kPa
297.39 K | 0.005295 kPa
297.89 K | 0.005534 kPa
297.98 K | 0.005566 kPa
298.88 K | 0.006057 kPa
299.38 K | 0.006339 kPa
300.37 K | 0.00692 kPa
300.46 K | 0.006953 kPa
300.87 K | 0.007243 kPa
301.87 K | 0.007893 kPa
302.37 K | 0.008238 kPa
302.84 K | 0.008517 kPa
302.94 K | 0.008627 kPa
303.36 K | 0.008981 kPa
303.76 K | 0.009236 kPa
303.81 K | 0.0093 kPa
303.82 K | 0.009286 kPa and 0.009287 kPa
303.86 K | 0.00937 kPa
304.85 K | 0.0102 kPa and 0.01021 kPa
305.24 K | 0.01047 kPa
305.26 K | 0.01052 kPa
305.29 K | 0.01057 kPa
305.35 K | 0.01065 kPa
305.42 K | 0.01069 kPa
307.68 K | 0.01286 kPa
308.6 K | 0.01393 kPa
308.64 K | 0.014 kPa
310.04 K | 0.0157 kPa
310.06 K | 0.01581 kPa
310.09 K | 0.0158 kPa
310.1 K | 0.01574 kPa
310.14 K | 0.01575 kPa
312.52 K | 0.01912 kPa
313.44 K | 0.02065 kPa
313.47 K | 0.0207 kPa
314.89 K | 0.02316 kPa
314.94 K | 0.0232 kPa
317.35 K | 0.02798 kPa and 0.02794 kPa
317.42 K | 0.02817 kPa
318.24 K | 0.0299 kPa
318.28 K | 0.03012 kPa
319.72 K | 0.0337 kPa
319.78 K | 0.03379 kPa and 0.03376 kPa
322.16 K | 0.04037 kPa
322.2 K | 0.0406 kPa
322.27 K | 0.04082 kPa
323.11 K | 0.04344 kPa
324.57 K | 0.04813 kPa
324.61 K | 0.04845 kPa
324.63 K | 0.04869 kPa
327.04 K | 0.05787 kPa
327.09 K | 0.05806 kPa
327.93 K | 0.06147 kPa
327.97 K | 0.06194 kPa
329.38 K | 0.06819 kPa
329.43 K | 0.06843 kPa
329.46 K | 0.06916 kPa
329.51 K | 0.0691 kPa
330.86 K | 0.07578 kPa
331.89 K | 0.08137 kPa
331.9 K | 0.08129 kPa
331.96 K | 0.08174 kPa
332.78 K | 0.08635 kPa
334.24 K | 0.09568 kPa
334.28 K | 0.09573 kPa
334.33 K | 0.09658 kPa and 0.09631 kPa
334.38 K | 0.09672 kPa
335.68 K | 0.1054 kPa
336.74 K | 0.1133 kPa
336.79 K | 0.1135 kPa
337.62 K | 0.1198 kPa
339.09 K | 0.1322 kPa
339.17 K | 0.1333 kPa
339.24 K | 0.1341 kPa
340.51 K | 0.1449 kPa
340.55 K | 0.1456 kPa
341.5 K | 0.1546 kPa
341.58 K | 0.1555 kPa
341.63 K | 0.1564 kPa
341.66 K | 0.157 kPa
348.04 K | 0.2325 kPa
352.92 K | 0.3135 kPa
357.8 K | 0.4166 kPa
362.67 K | 0.5493 kPa
367.55 K | 0.7207 kPa
372.43 K | 0.9271 kPa
374.86 K | 1.054 kPa
377.3 K | 1.195 kPa

CCCCCCCCCCCC(=O)OC [methyl dodecanoate]
Transpiration method
Conditions | vapor or sublimation pressure [kPa]
323.8 K | 0.00609
325.9 K | 0.00701
327.9 K | 0.00853
329.9 K | 0.00982
331.8 K | 0.0113
333.9 K | 0.0134
335.7 K | 0.0164
338.7 K | 0.0198
340.7 K | 0.0228
344.1 K | 0.0291
345.9 K | 0.0331
349.3 K | 0.0413
351.3 K | 0.047
354.4 K | 0.0603
356.4 K | 0.0682
359.6 K | 0.0828
361.5 K | 0.0952
364.7 K | 0.11
366.7 K | 0.132
370 K | 0.16
371.8 K | 0.178
374.7 K | 0.214
378.6 K | 0.263
381.7 K | 0.314
386.8 K | 0.412
389.6 K | 0.491
391.9 K | 0.534
394.9 K | 0.635
397 K | 0.694
399.2 K | 0.774
401.3 K | 0.898
